According to patent US8809372B2, “Pyridine derivatives” (Endo Pharmaceuticals, Inc., priority 2011, dated 2014):

What was measured:
[1] = biological target: T1, human CYP17 in H295R adrenocortical carcinoma cells (Homo sapiens, UniProt P05093); assay: Cell-based human CYP17 inhibition assay, H295R cells; conditions: 16 hours, read-out: CYP17 (human H295R adrenal cells)
T1 construct: H295R Adrenocortical carcinoma cells [NCI-H295A, ATCC Number CRL-2128, American Type Culture Collection; host or cells: H295R adrenocortical carcinoma cells
T1 sequence (P05093 1-508): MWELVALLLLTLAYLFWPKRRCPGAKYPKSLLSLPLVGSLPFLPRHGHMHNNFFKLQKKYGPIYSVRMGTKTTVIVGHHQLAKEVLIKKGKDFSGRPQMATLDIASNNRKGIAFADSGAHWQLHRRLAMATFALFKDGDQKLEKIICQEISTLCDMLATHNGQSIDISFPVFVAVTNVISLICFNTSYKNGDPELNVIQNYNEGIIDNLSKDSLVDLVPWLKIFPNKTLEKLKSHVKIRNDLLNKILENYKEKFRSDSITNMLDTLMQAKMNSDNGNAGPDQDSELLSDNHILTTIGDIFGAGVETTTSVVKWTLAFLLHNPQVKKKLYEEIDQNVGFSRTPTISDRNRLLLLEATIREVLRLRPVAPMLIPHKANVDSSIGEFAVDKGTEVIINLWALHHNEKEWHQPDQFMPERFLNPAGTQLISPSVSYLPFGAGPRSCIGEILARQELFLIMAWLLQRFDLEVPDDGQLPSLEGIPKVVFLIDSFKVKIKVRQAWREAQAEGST
Method in brief: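 H295R cells or LNCaP cells stably transfected with full-length human CYP17A1 (30,000/well) incubated 16 h at 37 °C with ³H-17α-hydroxypregnenolone and compound (top 10 μM, 3-fold dilutions, up to 10 concentrations). Medium chloroform-extracted and charcoal-treated; aqueous-phase radioactivity counted by scintillation.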

[2] = biological target: T2, rat CYP17 (rat testicular microsomes) (Rattus norvegicus, UniProt P11715); assay: CYP17 inhibition assay in rat testicular microsomes; assay type: biochemical
T2 construct: Rat testis tissue was collected and disrupted with 30 strokes of a glass homogenizer; from tissue; host or cells: rat testis (microsomes)
T2 sequence (P11715 1-507): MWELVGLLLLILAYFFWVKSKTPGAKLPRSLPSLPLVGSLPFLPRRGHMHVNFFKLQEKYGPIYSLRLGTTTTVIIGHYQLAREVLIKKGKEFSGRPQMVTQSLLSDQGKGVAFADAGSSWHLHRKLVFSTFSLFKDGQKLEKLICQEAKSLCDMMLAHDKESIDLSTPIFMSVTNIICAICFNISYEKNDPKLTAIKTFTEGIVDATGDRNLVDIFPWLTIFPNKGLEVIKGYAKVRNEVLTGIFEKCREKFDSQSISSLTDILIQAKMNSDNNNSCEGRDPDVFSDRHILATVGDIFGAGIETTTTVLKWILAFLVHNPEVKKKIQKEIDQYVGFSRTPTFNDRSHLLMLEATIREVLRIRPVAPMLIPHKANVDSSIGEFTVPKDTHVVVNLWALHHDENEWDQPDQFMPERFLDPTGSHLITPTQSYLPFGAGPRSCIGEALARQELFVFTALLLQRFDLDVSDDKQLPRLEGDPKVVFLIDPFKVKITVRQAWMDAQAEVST
Method in brief: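 Rat testicular microsomes (150–160 μg) or yeast microsomes expressing human CYP17 (1.7 pmol) react with ³H-17α-hydroxypregnenolone (1 μCi/reaction) and 325 μM NADPH in potassium phosphate buffer, pH 7.4. Compound is pre-incubated with substrate for 15 min, then the reaction runs 60 min at 37 °C. After chloroform extraction and charcoal treatment, aqueous radioactivity is measured by scintillation counting.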

IC50 [1] [nM]	IC50 [2] [nM]	SMILES
50 to 200	< 50	CC(O)(c1ccncc1)c1cnc(-c2ccc(C(F)(F)F)cc2)s1 (stereo not drawn) [Example 26, 1-(Pyridin-4-yl)-1-(2-(4-(trifluoromethyl)phenyl)thiazol-5-yl)ethanol]
201 to 10000	< 50	OC1(c2cnc(-c3ccc(F)cc3)s2)CCCc2cnccc21 (stereo not drawn) [Example 25, 5-(2-(4-fluorophenyl)thiazol-5-yl)-5,6,7,8-tetrahydroisoquinolin-5-ol]
< 50	< 50	CC(O)(c1ccncc1)c1ncc(-c2ccc(F)cc2)s1 (single isomer, unassigned; (-)) [Example 54, (−)-1-(5-(4-fluorophenyl)thiazol-2-yl)-1-(pyridin-4-yl)ethanol]
